Test results taken from ChEMBL document CHEMBL1201862, “PubChem BioAssay data set” (2004).
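Compound exposure: 48 hours, 5 concentrations, 96-well plates. Abbreviation: GI50, concentration required for 50% inhibition of growth.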 Calls of active or inactive are those of the source. Cut-off read from the data, not from the text of the source: active = GI50 up to about 1.1 µM and inactive = higher.

Tests used:
Experiment in all cases: NCI-60 cell line screen, 48 h
NCI-H23 = test system: NCI-H23
BT-549 = test system: BT-549
CAKI-1 = test system: CAKI-1
NCI-H460 = test system: NCI-H460
MOLT-4 = test system: MOLT-4
PC-3 = test system: PC-3
KM12 = test system: KM12
COLO 205 = test system: COLO 205
A549 = test system: A549
TK-10 = test system: TK-10
NCI-H226 = test system: NCI-H226
DU-145 = test system: DU-145
SNB-75 = test system: SNB-75
MDA-MB-231 = test system: MDA-MB-231
HCT-15 = test system: HCT-15
HOP-92 = test system: HOP-92
SK-MEL-28 = test system: SK-MEL-28
HOP-62 = test system: HOP-62
SNB-19 = test system: SNB-19
Malme-3M = test system: Malme-3M
K562 = test system: K562
RXF 393 = test system: RXF 393
CCRF-CEM = test system: CCRF-CEM
UO-31 = test system: UO-31
SF-268 = test system: SF-268
SK-MEL-5 = test system: SK-MEL-5
U-251 = test system: U-251
UACC-257 = test system: UACC-257
SK-MEL-2 = test system: SK-MEL-2
MDA-N = test system: MDA-N
SW-620 = test system: SW-620
EKVX = test system: EKVX
OVCAR-8 = test system: OVCAR-8
SR = test system: SR
SK-OV-3 = test system: SK-OV-3
UACC-62 = test system: UACC-62
OVCAR-4 = test system: OVCAR-4
HCC 2998 = test system: HCC 2998
SF-295 = test system: SF-295
HL-60 = test system: HL-60
MDA-MB-435 = test system: MDA-MB-435
MCF7 = test system: MCF7
ACHN = test system: ACHN
Hs-578T = test system: Hs-578T
SF-539 = test system: SF-539
SN12C = test system: SN12C
A498 = test system: A498
OVCAR-3 = test system: OVCAR-3
HCT-116 = test system: HCT-116
T47D = test system: T47D
NCI-H522 = test system: NCI-H522
M14 = test system: M14
786-0 = test system: 786-0
IGROV-1 = test system: IGROV-1
NCI/ADR-RES = test system: NCI/ADR-RES
RPMI-8226 = test system: RPMI-8226
HT-29 = test system: HT-29
OVCAR-5 = test system: OVCAR-5
LOX IMVI = test system: LOX IMVI

## CN1CCc2ccccc2C1Cc1ccccc1NC(=O)c1sc2ccccc2c1Cl (stereo not given)
NCI-H23
  GI50: > 100 µM (inactive)
BT-549
  GI50: > 100 µM (inactive)
CAKI-1
  GI50: > 100 µM (inactive)
NCI-H460
  GI50: > 100 µM (inactive)
MOLT-4
  GI50: > 100 µM (inactive)
PC-3
  GI50: > 100 µM (inactive)
KM12
  GI50: > 100 µM (inactive)
COLO 205
  GI50: > 100 µM (inactive)
A549
  GI50: > 100 µM (inactive)
TK-10
  GI50: > 100 µM (inactive)
NCI-H226
  GI50: > 100 µM (inactive)
DU-145
  GI50: > 100 µM (inactive)
SNB-75
  GI50: > 100 µM (inactive)
MDA-MB-231
  GI50: > 100 µM (inactive)
HCT-15
  GI50: > 100 µM
HOP-92
  GI50: > 100 µM (inactive)
SK-MEL-28
  GI50: > 100 µM (inactive)
HOP-62
  GI50: > 100 µM (inactive)
SNB-19
  GI50: > 100 µM (inactive)
Malme-3M
  GI50: > 100 µM (inactive)
K562
  GI50: > 100 µM (inactive)
RXF 393
  GI50: > 100 µM (inactive)
CCRF-CEM
  GI50: 50.9 µM (inactive)
UO-31
  GI50: > 100 µM (inactive)
SF-268
  GI50: > 100 µM (inactive)
SK-MEL-5
  GI50: > 100 µM (inactive)
U-251
  GI50: > 100 µM (inactive)
UACC-257
  GI50: > 100 µM (inactive)
SK-MEL-2
  GI50: > 100 µM (inactive)
MDA-N
  GI50: > 100 µM (inactive)
SW-620
  GI50: > 100 µM (inactive)
EKVX
  GI50: > 100 µM (inactive)
OVCAR-8
  GI50: > 100 µM (inactive)
SR
  GI50: > 100 µM (inactive)
SK-OV-3
  GI50: > 100 µM (inactive)
UACC-62
  GI50: > 100 µM (inactive)
OVCAR-4
  GI50: > 100 µM (inactive)
HCC 2998
  GI50: > 100 µM (inactive)
SF-295
  GI50: > 100 µM (inactive)
HL-60
  GI50: 42.3 µM (inactive)
MDA-MB-435
  GI50: > 100 µM (inactive)
MCF7
  GI50: > 100 µM (inactive)
ACHN
  GI50: > 100 µM (inactive)
Hs-578T
  GI50: > 100 µM (inactive)
SF-539
  GI50: > 100 µM (inactive)
SN12C
  GI50: > 100 µM (inactive)
A498
  GI50: > 100 µM (inactive)
OVCAR-3
  GI50: > 100 µM (inactive)
HCT-116
  GI50: > 100 µM (inactive)
T47D
  GI50: > 100 µM (inactive)
NCI-H522
  GI50: > 100 µM (inactive)
M14
  GI50: > 100 µM (inactive)
786-0
  GI50: > 100 µM (inactive)
IGROV-1
  GI50: > 100 µM (inactive)
NCI/ADR-RES
  GI50: > 100 µM (inactive)
RPMI-8226
  GI50: > 100 µM (inactive)

## Nn1c(Nc2ccc(S(=O)(=O)Nc3ncccn3)cc2)nnc(/C=C/c2c(O)ccc3ccccc23)c1=O
NCI-H23
  GI50: 19.8 µM (inactive)
BT-549
  GI50: 22.3 µM (inactive)
CAKI-1
  GI50: 26.7 µM (inactive)
NCI-H460
  GI50: 23.3 µM (inactive)
MOLT-4
  GI50: > 100 µM (inactive)
PC-3
  GI50: 27.7 µM (inactive)
A549
  GI50: 46 µM (inactive)
TK-10
  GI50: 26.8 µM (inactive)
DU-145
  GI50: 33.5 µM (inactive)
SNB-75
  GI50: 22.2 µM (inactive)
MDA-MB-231
  GI50: 21.8 µM (inactive)
HCT-15
  GI50: 27.3 µM
HOP-92
  GI50: 66.2 µM (inactive)
HOP-62
  GI50: 33.6 µM (inactive)
SNB-19
  GI50: 46.9 µM (inactive)
Malme-3M
  GI50: 30.8 µM (inactive)
K562
  GI50: 29 µM (inactive)
RXF 393
  GI50: 26.2 µM (inactive)
CCRF-CEM
  GI50: 15.8 µM (inactive)
UO-31
  GI50: 30.5 µM (inactive)
SF-268
  GI50: 31.6 µM (inactive)
HT-29
  GI50: 33.9 µM (inactive)
U-251
  GI50: 31.9 µM (inactive)
UACC-257
  GI50: 20.1 µM (inactive)
SK-MEL-2
  GI50: 18.5 µM (inactive)
MDA-N
  GI50: 31.4 µM (inactive)
SW-620
  GI50: 31.8 µM (inactive)
EKVX
  GI50: 24.2 µM (inactive)
OVCAR-8
  GI50: 34.6 µM (inactive)
SR
  GI50: 23.4 µM (inactive)
UACC-62
  GI50: 20.5 µM (inactive)
OVCAR-4
  GI50: 24.5 µM (inactive)
HCC 2998
  GI50: 23.3 µM (inactive)
HL-60
  GI50: 20.6 µM (inactive)
MDA-MB-435
  GI50: 25.2 µM (inactive)
MCF7
  GI50: 21.6 µM (inactive)
ACHN
  GI50: 25.8 µM (inactive)
Hs-578T
  GI50: 48.4 µM (inactive)
SN12C
  GI50: 28.3 µM (inactive)
OVCAR-5
  GI50: 32.7 µM (inactive)
A498
  GI50: 25.2 µM (inactive)
OVCAR-3
  GI50: 15.1 µM (inactive)
HCT-116
  GI50: 21.1 µM (inactive)
T47D
  GI50: 23.8 µM (inactive)
NCI-H522
  GI50: 34.3 µM (inactive)
M14
  GI50: 29 µM (inactive)
786-0
  GI50: 26.6 µM (inactive)
IGROV-1
  GI50: 27.5 µM (inactive)
NCI/ADR-RES
  GI50: 32.7 µM (inactive)
LOX IMVI
  GI50: 30.3 µM (inactive)
RPMI-8226
  GI50: 34.1 µM (inactive)

## CC1CCC(=O)C(C(=O)CC2CC(=O)NC(=O)C2)C1 (stereo not given)
NCI-H23
  GI50: > 100 µM (inactive)
BT-549
  GI50: > 100 µM (inactive)
CAKI-1
  GI50: > 100 µM (inactive)
NCI-H460
  GI50: > 100 µM (inactive)
MOLT-4
  GI50: > 100 µM (inactive)
PC-3
  GI50: > 100 µM (inactive)
KM12
  GI50: > 100 µM (inactive)
COLO 205
  GI50: > 100 µM (inactive)
A549
  GI50: > 100 µM (inactive)
TK-10
  GI50: > 100 µM (inactive)
NCI-H226
  GI50: > 100 µM (inactive)
DU-145
  GI50: > 100 µM (inactive)
SNB-75
  GI50: > 100 µM (inactive)
MDA-MB-231
  GI50: > 100 µM (inactive)
HCT-15
  GI50: > 100 µM
HOP-92
  GI50: > 100 µM (inactive)
SK-MEL-28
  GI50: > 100 µM (inactive)
HOP-62
  GI50: > 100 µM (inactive)
SNB-19
  GI50: > 100 µM (inactive)
Malme-3M
  GI50: > 100 µM (inactive)
K562
  GI50: > 100 µM (inactive)
RXF 393
  GI50: > 100 µM (inactive)
CCRF-CEM
  GI50: > 100 µM (inactive)
UO-31
  GI50: > 100 µM (inactive)
SF-268
  GI50: > 100 µM (inactive)
SK-MEL-5
  GI50: > 100 µM (inactive)
HT-29
  GI50: > 100 µM (inactive)
U-251
  GI50: > 100 µM (inactive)
UACC-257
  GI50: > 100 µM (inactive)
SK-MEL-2
  GI50: > 100 µM (inactive)
MDA-N
  GI50: > 100 µM (inactive)
SW-620
  GI50: > 100 µM (inactive)
EKVX
  GI50: > 100 µM (inactive)
OVCAR-8
  GI50: > 100 µM (inactive)
SR
  GI50: > 100 µM (inactive)
SK-OV-3
  GI50: > 100 µM (inactive)
UACC-62
  GI50: > 100 µM (inactive)
OVCAR-4
  GI50: > 100 µM (inactive)
HCC 2998
  GI50: > 100 µM (inactive)
SF-295
  GI50: > 100 µM (inactive)
HL-60
  GI50: > 100 µM (inactive)
MDA-MB-435
  GI50: > 100 µM (inactive)
MCF7
  GI50: > 100 µM (inactive)
ACHN
  GI50: > 100 µM (inactive)
Hs-578T
  GI50: > 100 µM (inactive)
SF-539
  GI50: > 100 µM (inactive)
SN12C
  GI50: > 100 µM (inactive)
OVCAR-5
  GI50: > 100 µM (inactive)
A498
  GI50: > 100 µM (inactive)
OVCAR-3
  GI50: > 100 µM (inactive)
HCT-116
  GI50: > 100 µM (inactive)
T47D
  GI50: > 100 µM (inactive)
M14
  GI50: > 100 µM (inactive)
786-0
  GI50: > 100 µM (inactive)
IGROV-1
  GI50: > 100 µM (inactive)
NCI/ADR-RES
  GI50: > 100 µM (inactive)
LOX IMVI
  GI50: > 100 µM (inactive)
RPMI-8226
  GI50: > 100 µM (inactive)
